Experimental data: US6824786B2, “Compositions comprising phenyl-glycine derivatives” (priority 2001, dated 2004)

How the values were obtained:
Format in all cases: in vivo, human
[1] = test system: severe dry skin condition of X-linked ichthyosis; assay: Topical treatment of X-linked ichthyosis skin under Hays Occlusive Chamber
[2] = test system: forearm skin; assay: Forearm skin thickness by micrometer calipers (skin changes associated with aging); conditions: 10% cream twice daily to right forearm for four weeks; subject
Protocol: In one of the studies related to skin changes associated with aging, skin thickness was measured by micrometer calipers as follows: The skin was grasped with a 2×6 cm metal hinge; the internal faces of which were coated with emery cloth to prevent slippage, and manually squeezed to threshold subject discomfort. Combined thickness of two whole-skin layers including thickness of the two hinge leaves was measured with micrometer calipers. Thickness of the two hinge leaves was subtracted to determine the actual thickness of two whole-skin layers. Triplicate measurements on treated sites were conducted and an average number was used for calculation of the skin thickness. A subject, applied topically twice daily N-acetyl-4-hydroxyphenyl-glycinamide 5% cream to their left forearm for eight weeks. […] While there was no change in skin thickness of their right forearm, their left forearm had increased 49% in skin thickness as measured by the micrometer calipers (Example 1). […] While there was no change in skin thickness of their right forearm, their left forearm had increased 24% in skin thickness as measured by the micrometer calipers (Example 1). […] While there was no change in skin thickness of their left forearm, their right forearm had increased 25% in skin thickness as measured by the micrometer calipers (Example 1).

[3] = test system: chronic plaque psoriasis; assay: Topical treatment of chronic plaque psoriasis
Text: A subject, having chronic plaque psoriasis for 55 year duration resistant to all forms of topical therapy, topically applied N-acetyl-4-hydroxyphenyl-glycinamide 10% cream twice daily to a thick plaque of psoriasis on the right elbow. […] The clinical evaluation was judged to be a 75% improvement after five days of topical treatment. […] Clinical evaluation rated the improvement to be about 90%. Three patients having chronic plaque psoriasis resistant to most forms of topical therapy topically applied N-acetyl-4-acetoxyphenyl-glycinamide 5% cream (Example 24) twice daily to thick plaques of psoriasis. […] The clinical evaluation was judged to be an 80% improvement after one week of topical treatment. […] Clinical evaluation rated the improvement on three patients to be from 95 to 100%.

[4] = 5% cream twice daily, after one week, three patients

Row | Compound | conclusion: topical treatment of severe dry skin and symptomatic relief of congenital ichthyosis ([1]; 10% cream) | clinical appearance of treated site after stopping treatment ([1]; 10% cream one week under chamber, then another week without any further treatment) | clinical appearance of treated site ([1]; 10% cream, 1 cm^2 involved skin of back under Hays Occlusive Chamber, after one week, subject) | appearance of treated forearm [2] | increase in skin thickness [2] [%] | erythema and thickness of the plaques ([3]; 5% cream (Example 24) twice daily, after one week, three patients) | clinical evaluation, improvement [3, 4] [%] | psoriatic scales [3, 4] | clinical appearance of treated area ([3]; 5% cream twice daily, after two weeks, three patients) | conclusion: topical treatment of psoriasis ([3]; cream twice daily)
1 | COC(=O)CNc1ccc(O)cc1 [4-hydroxyphenyl-glycine methyl ester] | therapeutically effective | remained normal in clinical appearance | free of all evidence of ichthyosis |  |  |  |  |  |  | 
2 | CC(=O)NC(=O)CNc1ccc(OC(C)=O)cc1 [N-acetyl-4-acetoxyphenyl-glycinamide] |  |  |  | more firm, smooth, plump and minimally wrinkled when lifted | 25 | diminished substantially | 80 | no evidence of any psoriatic scales | clinically normal | therapeutically effective
